Source: PMC12408683 (Archives of Toxicology, 2025)

Experiments:
[1] = design: method as in Carlsson et al. 2022; settings: concentrations below 25 µM; ref Carlsson et al. 2022; cited from earlier work
[2] = design: method as in Carlsson et al. 2022; settings: ref Carlsson et al. 2022; cited from earlier work
human liver biopsies = system: human liver biopsies; design: method as in Herrmann et al. 2013; settings: ref Herrmann et al. 2013; cited from earlier work
HepG2-CYP1A2 cells [3] = settings: positive control
Description: The CBMN assay was performed according to the OECD test guideline #487. Therefore, 2 × 10^5 cells were seeded in 3.5 cm dishes and allowed to adhere for 24 h. […] After the 24 h treatment, the medium was discarded and the cells were incubated with fresh medium, containing 6 µg/mL cytochalasin B as cytokinesis inhibitor. The cells were then left to grow for 72 h, allowing for 1.5–2 × cell cycles. Subsequently, the cells were rinsed with PBS and fixed with ice-cold methanol for 10 min at –20 °C. Cells were washed and embedded with Vectashield® containing DAPI (Vector Labs, Burlingame, CA, USA). The samples were analysed with a Zeiss Axio Observer 7 microscope equipped with an Axiocam 305 mono and a 63 × oil immersion objective (plan-apochromat 63x/1.40 DIC M27) using ZEN Software 3.2. 500 binucleated cells per sample were analysed for micronuclei formation.
As benchmark response (BMR) for all concentration–response curves (adducts, micronuclei), a 2.0-fold increase vs. solvent control was used (BMC100, critical effect size = 1). The determined BMC100 and the corresponding upper and lower boundary (BMCU and BMCL, respectively) of the 90% confidence interval (CI) were used for potency comparison.

calf thymus DNA = system: calf thymus DNA; design: method as in Bergau et al. 2021; settings: ref Bergau et al. 2021; cited from earlier work
HepG2 cells [4] = experiment: Resazurin reduction assay (cytotoxicity) in HepG2 cells; settings: positive control 10 µM, time-dependent
HepG2 cells [5] = settings: positive control, 200 µM, 20 min
Description: (§1) As a positive control, tBuOOH (20 min, 200 µM) was used. Subsequently, the alkaline comet assay was performed to quantify DNA strand breaks as previously described (Haas et al. [2023b]). Per sample, at least 50 comets were counted with Comet IV software (Instem, Staffordshire, UK) using a Zeiss Axio Observer 7 microscope equipped with an Axiocam 305 mono and ZEN 3.2 software (Carl Zeiss, Jena, Germany).

HepG2-CYP1A2 cells [6] = experiment: Alkaline comet assay (DNA strand breaks) in HepG2-CYP1A2 cells; settings: positive control, 200 µM, 20 min
Description: as §1

C=CC(O)c1ccc(OC)c(OC)c1 (centres unmarked) [1′OH-ME, 1′-hydroxymethyleugenol]
cytotoxicity [1]: not cytotoxic | alkaline comet assay outcome [2]: negative

C=CCc1ccc(OC)c(OC)c1 [ME, methyleugenol]
ME-derived DNA adducts, median (human liver biopsies): 13 adducts/10^8 nts

CO[C@@]12[C@H](COC(N)=O)C3=C(C(=O)C(C)=C(N)C3=O)N1C[C@@H]1N[C@@H]12 [MMC, mitomycin C, reference compound]
MN (CBMN) (HepG2-CYP1A2 cells [3]): robust increase in MN

C/C=C/c1ccc(OC)cc1 [anethole]
E3′-N2-dG adduct levels vs equimolar ES concentrations (calf thymus DNA): several times lower

COc1cc([C@@H]2c3cc4c(cc3[C@@H](O[C@@H]3O[C@@H]5CO[C@@H](C)O[C@H]5[C@H](O)[C@H]3O)[C@H]3COC(=O)[C@H]23)OCO4)cc(OC)c1O [etoposide, reference compound]
cytotoxicity (resazurin reduction assay) (HepG2 cells [4]): cytotoxic

CC(C)(C)OO [tBuOOH, tert-butyl hydroperoxide, reference compound]
DNA strand breaks (alkaline comet assay) (HepG2 cells [5]): strong DNA strand break induction | DNA strand breaks (alkaline comet assay) (HepG2-CYP1A2 cells [6]): strong DNA strand break induction
